Patent publication US20080286393A1, “Method for the enrichment of the polyphenolic contents from unripe fruit rinds of Terminalia belerica and uses thereof” (priority 2007, published 2008)

Experiments:
[1] = Anti-oxidant activity: DPPH scavenging; details: FIG. 5
Protocol: (§1) The antioxidant activity of the light-colored, enriched/concentrated (85%-100%) polyphenolic extract from the dried, unripe fruit rinds of Terminalia belerica was assayed by diphenylpicrylhydrazyl (DPPH), Oxygen Radical Absorption (or Absorbance) Capacity (ORAC) and the hydroxyl radical Absorption (or Absorbance) capacity (HORAC) studies, as per the validated procedures documented in Cosmetics and toiletries. Cosmeceuticals: Jang D I, Lee B J, Jeon C O, Jo N S, Park J H, Cho S Y, Lee H, Koh J S. 1998, J. Agric. Food Chem. (2001), 49, 4619-4626 and J. Agric. Food. Chem. (2002), 50, 2772-2777.)

[2] = Oxygen Radical Absorption (or Absorbance) Capacity (ORAC); details: FIG. 6
Protocol: as §1, with “[…] The ORAC value of the light-colored, enriched/concentrated (85%-100%) polyphenolic extract from the dried, unripe fruit rinds of Terminalia belerica was 6237±640 μMol trolox equivalents/gram while the ORAC value of Vitamin C was 3400 μMol trolox equivalents/gram and that of grape seed extract was 4528 μMol trolox equivalents/gram.” for “Chem. (2002), 50, 2772-2777.)”

Structure (SMILES)	SC50 scavenging activity [1]	ORAC value [2]
Cc1cc(C(C)(C)C)c(O)c(C(C)(C)C)c1 [BHT, Butylated hydroxyl toluene]	4.6 µg/mL	
O=C1O[C@H]([C@@H](O)CO)C(O)=C1O [Vitamin C]	1.9 µg/mL	3400 μMol trolox equivalents/gram
